Numbers after ± are expanded uncertainties.
What was measured:
[1] = Molar enthalpy of transition or fusion; conditions: Crystal; DSC
[2] = Crystal; DTA

Compound	Molar enthalpy of transition or fusion [1] [kJ/mol]	Normal melting temperature [2] [°C]
CC(C)(C)C1=CC(=O)C(=O)C(C(C)(C)C)=C1 [3,5-di-tert-butyl-o-benzoquinone]	26.2 ± 0.59	115.4 ± 0.6
CC(C)(C)C1=CC=C(C(C)(C)C)C(=O)C1=O [3,6-di-tert-butyl-o-benzoquinone]	28 ± 0.63	202.2 ± 0.6
